Biological target: T1, OAT1 (Solute carrier family 22 member 6, SLC22A6) (Homo sapiens, UniProt Q4U2R8)
T1 sequence (Q4U2R8 whole entry): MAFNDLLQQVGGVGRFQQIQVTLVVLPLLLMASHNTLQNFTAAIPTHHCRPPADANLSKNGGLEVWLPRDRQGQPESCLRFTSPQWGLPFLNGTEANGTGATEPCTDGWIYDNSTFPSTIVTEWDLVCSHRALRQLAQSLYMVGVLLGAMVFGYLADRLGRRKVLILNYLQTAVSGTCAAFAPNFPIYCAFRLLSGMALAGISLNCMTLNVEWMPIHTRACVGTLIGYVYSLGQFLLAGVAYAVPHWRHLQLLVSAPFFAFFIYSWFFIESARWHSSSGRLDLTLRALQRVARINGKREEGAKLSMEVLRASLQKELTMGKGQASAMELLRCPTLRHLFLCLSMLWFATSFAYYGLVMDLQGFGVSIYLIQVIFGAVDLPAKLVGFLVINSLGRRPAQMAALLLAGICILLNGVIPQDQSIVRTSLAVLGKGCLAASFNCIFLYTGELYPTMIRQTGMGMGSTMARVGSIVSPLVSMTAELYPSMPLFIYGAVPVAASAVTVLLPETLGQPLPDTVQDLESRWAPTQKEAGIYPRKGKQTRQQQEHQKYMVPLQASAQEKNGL
Assay: TP_TRANSPORTER: inhibition of 6-Carboxyfluorescein uptake by 1-methylxanthine at a concentration of 500uM in OAT1-expressing cell
Type: functional
Design: scale not given: the % may be the effect or the level left
Details: OAT1-expressing cells, probe 6-Carboxyfluorescein; read-out: Activity

- activity at 500 µM: 50%
Structure (SMILES): Cn1c(=O)[nH]c2nc[nH]c2c1=O [1-METHYLXANTHINE]

From ChEMBL document CHEMBL2074289, “Inhibition of the human organic anion transporter 1 by the caffeine metabolite 1-methylxanthine” (Biochem Biophys Res Commun, 2004)
